US10821123B2, “Use of ribose for treatment of subjects having congestive heart failure” (priority 2016, dated 2020)

Columns and labels:
[1] = system: dogs with pacing-induced heart failure; assay: Canine model of heart failure induced by chronic cardiac pacing, longevity; format: in vivo
Description: It has been shown that administration of D-ribose can improve cardiac function in animal models of heart failure. […] Animals treated with once daily, oral D-ribose at a weight equivalent dose of 10 g in a 70 kg human lived 40% longer than placebo animals. It has been hypothesized that D-ribose helps retain cardiac function by maintaining the adenylate pool in cardiomyocytes that are overworked due to underlying heart disease. Supplemental D-ribose can bypass the cell's need to synthesize D-ribose via the pentose phosphate shunt, which can be a rate limiting step to synthesis of ATP in cardiomyocytes by either the salvage or de novo pathways. It has been shown in several studies that D-ribose can enhance the rate of recovery of ATP and other constituents of the adenylate pool in the hearts of animals subjected to hypoxic stress. However, there may be additional benefits to D-ribose treatment in subjects suffering from diminished mitochondrial function in disease states such as coronary artery disease, ischemic heart disease, dilated cardiomyopathy, or other conditions leading to heart failure.
Dogs were surgically implanted with a cardiac pacing device used to induce heart failure through chronic cardiac pacing. In addition, an aortic catheter, coronary sinus catheter (for blood sampling), left ventricular catheter and pressure transducer, left ventricular piezoelectric crystals, and a transonic flow probe in the left circumflex coronary artery were implanted to measure a variety of hemodynamic parameters and to sample coronary venous blood. Subsequent to recovery from surgery, animals were paced for 3 weeks at a rate of 210 beats per minute (bpm) followed by an increased rate of 350 bpm which continued until the animals were deemed to be terminal. Hemodynamic and metabolic measurements were made on a scheduled basis throughout the pacing period. Dogs were treated with 150 mg/kg D-ribose solution orally either once daily (fasted) or three times daily. Placebo dogs were given an equivalent volume of water. D-ribose treatment started 10 days following the start of pacing and continued until the animal was deemed to be terminal. […] However, one significant difference was how long the D-ribose treated animals lived. Dogs treated once daily lived an average of 38.3 days versus 27.3 days for placebo animals (p<0.03). Furthermore, although the group of dogs treated three times daily (tid) with D-ribose consisted of fewer animals than the group of dogs treated once daily, the tid group lived on average 30.5 days, which was not statistically different than placebo animals (p>0.20). […]

[2] = Safety, tolerability and pharmacokinetics of multiple oral doses of D-ribose solution in subjects with stable chronic heart failure; format: in vivo, human
Experimental: Although a morning oral dose of D-ribose (overnight fasting) produced significant blood plasma levels, the mid-day and evening doses produced diminished blood levels similar to that observed in healthy subjects given food immediately prior to dosing, even though D-ribose administration to subjects with stable congestive heart failure occurred over 2 hours after their previous meal.
The safety, tolerability, pharmacokinetics and pharmacodynamics of multiple oral doses of D-ribose solution was studied in 14 subjects with stable, chronic heart failure. It is well known that bolus oral D-ribose can induce a dose-dependent transient hypoglycemia that is preceeded by a transient spike in insulin levels. This can result in symptomatic hypoglycemia in subjects whose blood glucose levels fall sufficiently far. This transient hypoglycemia is the dose limiting side effect of D-ribose treatment, although it is readily overcome by drinking a glass of fruit juice. For this reason, subjects were initially administered a 10 g dose, fasted, followed 5 hours later by a 5 g dose at least 2.5 hours after the end of the previous meal. Subjects that tolerated the 10 g dose completed the remainder of the study at the 10 g dose. […] All subjects tolerated the 10 g dose, so the remainder of the study was conducted using the 10 g dose only. For the next two days, subjects were administered 10 g of D-ribose solution three times daily at 5 hour intervals beginning with a fasted morning dose around 7 a.m. Meals were served two hours after each dose such that the second and third daily doses were administered approximately 2.5 hours after completion of the previous meal. On the third day of dosing, subjects were administered a single dose of chewable tablets containing 16 g of glucose at 0, 30, and 60 minutes post-dose according to a predefined randomization schedule. The purpose of this was to determine whether glucose could attenuate any symptomatic hypoglycemia (if observed), or if it would impact the rate or extent of D-ribose absorption into the blood. Blood levels of D-ribose and insulin were determined at pre-defined time points throughout the study. Blood glucose levels were monitored continuously throughout the study. Four major outcomes emerged from this study. […] This phenomenon was not observed in normal subjects and appears unique to heart failure patients. Lastly, supplemental glucose administered between 0 and 60 minutes post-dose had no effect on D-ribose absorption into the blood.

[3] = system: patients with NYHA Class II to IV heart failure; assay: Remodeling effects in patients with NYHA Class II to IV heart failure taking D-ribose; format: in vivo, human; conditions: 10 to 50 g oral once daily fasted, within 3 months to one year
Experimental: Oral D-ribose powder for solution is administered at a dose of 10 to 50 grams per dose, once daily, fasted (e.g., 3 hours, 4, hours, 5 hours, 6 hours, 7 hours, 8 hours, 9 hours, 10 hours, 11 hours, 12 hours, or more). D-ribose powder for solution is dissolved in 50 to 250 mL of water or clear beverage and consumed within a 15 to 60 minute period. It is preferred that D-ribose be administered fasted. Patients are administered D-ribose for a period of at least two weeks but possibly for the remainder of their lives. Within a period of 3 months to one year, in at least some embodiments, patients taking D-ribose may have a lower Left Ventricular Systolic Volume Index ([…]), a lower Left Ventricular Diastolic Volume Index ([…]), higher Ejection Fractions (EF), higher dP/dtmax values, lower dP/dtmin values, and/or higher cardiac output than patients taking placebo.

[4] = healthy subjects, oral; cited from earlier work
[5] = system: patients with NYHA Class II to IV heart failure; assay: Functional improvement in patients with NYHA Class II to IV heart failure taking D-ribose; format: in vivo, human; conditions: 10 to 50 g oral once daily fasted
Experimental: Oral D-ribose powder for solution is administered at a dose of 10 to 50 grams per dose, once daily, fasted (e.g., 3 hours, 4, hours, 5 hours, 6 hours, 7 hours, 8 hours, 9 hours, 10 hours, 11 hours, 12 hours, or more). D-ribose powder for solution is dissolved in 50 to 250 mL of water or clear beverage and is consumed within a 15 to 60 minute period. It is preferred that D-ribose be administered to patients that are fasted. Patients are administered D-ribose for a period of at least two weeks, but possibly for the remainder of their lives.

[6] = system: patients with acute decompensated heart failure; assay: Dyspnea and/or edema in patients hospitalized for acutely decompensated heart failure; format: in vivo, human; conditions: 10 to 50 g oral once daily fasted
Experimental: Patients admitted to the hospital for acute decompensated heart failure may be given oral D-ribose powder for solution at a dose of 10 to 50 grams per dose, once daily, fasted (e.g., 3 hours, 4, hours, 5 hours, 6 hours, 7 hours, 8 hours, 9 hours, 10 hours, 11 hours, 12 hours, or more). D-ribose powder for solution is dissolved in 50 to 250 mL (preferably 50 mL in this case) of water or clear beverage and consumed within a 15 to 60 minute period. It is preferred that D-ribose be administered to patients that are fasted. Patients are treated until symptoms of dyspnea and fluid overload have stabilized.

[7] = system: mice with chronic pressure overload (ascending aortic constriction); assay: Mouse model of chronic pressure overload (ascending aortic constriction), myocardial remodeling; format: in vivo
Description: This remodeling effect was manifested by lower left ventricular dimensions, lower ventricular wall thicknesses, and greater fractional shortening values compared to untreated controls. […] The study consisted of two ribose treated groups (high and low dose) with the high dose treated group responding better than the low dose group compared to untreated controls. The high dose provided D-ribose exposures that were 4-fold greater than observed in the low dose group providing evidence of a dose effect. The once daily, subcutaneous administration of D-ribose was intended to mimic once daily oral dosing in humans. […] Mice were subjected to ascending aortic constriction (AAC) leading to LV hypertrophy followed by severe LV systolic dysfunction and associated heart failure. In this situation, mitochondrial ATP synthesis is reduced and ROS production is increased in association with advancing heart failure. Reduced ATP levels can contribute to progressive loss of cardiac function from increasing energy deficit. Increased ROS can result in oxidation of critical enzymes and a diminished reducing environment, leading to apoptosis and fibrosis, which are aspects of cardiac remodeling. Mice were divided into four groups; Sham controls (same thoracic surgery with no constriction), AAC untreated, and AAC D-ribose treated (high and low dose). D-ribose for injection (5% to 50% weight/volume) was administered at a dose of 25 to 500 mg/kg body weight by subcutaneous or intraperitoneal injection one to four times daily. After initiation of D-ribose treatment, animals in all groups were monitored for progressive heart failure using echocardiography. LV volumes, fractional shortening, and LV wall thicknesses were measured at 10 and 15 weeks. When LV dilation and fractional shortening were sufficiently advanced, animals were subjected to physical function testing using a motorized treadmill. Animals were allowed to recover for one week and their hearts were harvested and evaluated histologically for myocyte hypertrophy and fibrosis.

[8] = high dose AAC D-ribose treated vs AAC control mice, p<0.05
[9] = low dose AAC D-ribose treated vs AAC controls, not statistically significant

In the case of `O=C[C@H](O)[C@H](O)[C@H](O)CO` [D-ribose], the “hemodynamics or other metabolic measures vs placebo” value ([1]; 150 mg/kg oral D-ribose treated dogs) is reported as “no significant differences”, the average survival time ([1]; 150 mg/kg oral once daily (fasted), p<0.03 vs placebo (27.3 days)) is reported as 38.3 days and the average survival time ([1]; 150 mg/kg oral three times daily (tid), p>0.20 vs placebo, not statistically different) is reported as 30.5 days. For the same compound, the “longer life than placebo animals” value ([1]; once daily oral dose equivalent to 10 g in a 70 kg human) was 40%, the “episodes of symptomatic hypoglycemia” value ([2]; 10 g bolus oral dose, even with fasted doses) was “no episodes of symptomatic hypoglycemia” and the tolerability ([2]; 10 g bolus oral dose, subjects with stable chronic heart failure) was “well tolerated”. For the same compound, the “effect of supplemental glucose on D-ribose absorption into the blood” value ([2]; 16 g glucose chewable tablets at 0, 30 or 60 minutes post-dose) was “no effect”, the “share of non-fasted doses with blood levels less than 15% of a 10 g fasted dose” value ([2]; oral 10 g mid-day and evening doses) was 30% and the “blood levels from mid-day and evening doses relative to 10 g fasted morning dose” value ([2]; oral 10 g, approximately 2.5 hours after previous meal) was “roughly 40%”. For the same compound, the “mean blood level exposure of mid-day 5 g dose, lower than 10 g fasted morning dose” value ([2]; oral, 5 g mid-day dose at least 2.5 hours after previous meal vs 10 g fasted morning dose) was 30 fold, the “LVESVI, LVEDVI, EF, dP/dtmax, dP/dtmin, cardiac output vs placebo” value [3] was “may have a lower Left Ventricular Systolic Volume Index (LVESVI)” and the “absorption relative to metabolism” value [4] was “absorbed faster than it is metabolized”. The “blood levels after administration immediately following meals vs after fasting” value [4] was “greatly reduced”, the “dose proportionality of blood levels” value [4] was “increase more than proportionally with increasing dose” and the “sub-maximal (Six Minute Walk Test) or maximal (CPX) exercise capacity” value [5] was “may exhibit improved sub-maximal exercise capacity”. For the same compound, the “assessments of fatigue, dyspnea, edema, Global Clinical Status and other outcomes” value ([5]; within 3 months to one year, vs patients not taking D-ribose) was “may show improved assessments”, the “symptoms of dyspnea vs patients taking diuretics only” value [6] was “may exhibit reduced symptoms of dyspnea within a significantly shorter timeframe” and the heart weights ([7]; D-ribose treated animals vs untreated controls) was “heart weights were greater in untreated controls than D-ribose treated animals”. The “fibrosis by differential staining (tissue sections)” value [7, 8] was “significantly less fibrosis”, the “myocyte diameters (tissue sections)” value [7, 8] was “significantly smaller” and the “left ventricular fractional shortening (echocardiography)” value ([7]; high dose AAC D-ribose treated vs AAC controls, p<0.01) was “significantly lower degree of remodeling”. For the same compound, the “left ventricular dimensions (echocardiography)” value ([7]; high dose AAC D-ribose treated vs AAC controls, p<0.01 at systole, p=0.01 at diastole) was “significantly lower degree of remodeling”, the “total wall thickness (echocardiography)” value ([7]; high dose AAC D-ribose treated vs AAC controls, p<0.03) was “significantly lower degree of remodeling” and the “left ventricular dimensions (echocardiography)” value [7, 9] was “numerical improvements”. The “left ventricular fractional shortening (echocardiography)” value [7, 9] was “numerical improvements”, the “total wall thickness (echocardiography)” value ([7]; low dose AAC D-ribose treated vs AAC controls, p<0.04) was “statistically significant” and the “D-ribose exposure, high dose relative to low dose group” value ([7]; mice, once daily subcutaneous dose) was 4 fold.
